# Patent US7074789B2, “Kinase inhibitors” (Amgen Inc., priority 1999, dated 2006)
# Legend:
# Assay type in all cases: biochemical
# EGFR = target: T1, EGFR (Homo sapiens, UniProt P00533); experiment: Kinase inhibition assay (33P transfer), EGFR; settings: Table 2, kinase inhibition class; for IC50: read-out: EGFR-1
# T1 construct: Kinases are expressed as either kinase domains or full length constructs; made in house
# Outline: (§1)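 Read-out: scintillation counts of 33P moved from ATP onto synthetic peptide polymer coated on the well surface, after washing with 0.5% phosphoric acid. Enzymes were tagged (GST or polyHistidine) and came from bacterial or insect-cell expression. IC50 marks 50% loss of incorporated label.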
# Kdr = target: T2, Kdr (Homo sapiens, UniProt P35968); experiment: Kinase inhibition assay (33P transfer), Kdr; settings: for IC50: read-out: KDR-1
# T2 construct: Kinases are expressed as either kinase domains or full length constructs; made in house
# Outline: (§2)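 Liquid scintillation counting of 33P on plate-bound synthetic substrates gives kinase activity. Plates are washed in 0.5% phosphoric acid first; kinases are tagged recombinant proteins from E. coli or baculovirus-infected High Five cells.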
# PDGFRB = target: T3, PDGFRB (Homo sapiens, UniProt P09619); experiment: Kinase inhibition assay (33P transfer), PDGFRB; settings: for IC50: read-out: PDGFRB-1
# T3 construct: Kinases are expressed as either kinase domains or full length constructs; made in house
# Zap-70 = target: T4, Zap-70 (Homo sapiens, UniProt P43403); experiment: Kinase inhibition assay (33P transfer), Zap-70; settings: for IC50: read-out: Zap-1
# T4 construct: Kinases are expressed as either kinase domains or full length constructs; made in house
# T4 sequence (P43403 1-619): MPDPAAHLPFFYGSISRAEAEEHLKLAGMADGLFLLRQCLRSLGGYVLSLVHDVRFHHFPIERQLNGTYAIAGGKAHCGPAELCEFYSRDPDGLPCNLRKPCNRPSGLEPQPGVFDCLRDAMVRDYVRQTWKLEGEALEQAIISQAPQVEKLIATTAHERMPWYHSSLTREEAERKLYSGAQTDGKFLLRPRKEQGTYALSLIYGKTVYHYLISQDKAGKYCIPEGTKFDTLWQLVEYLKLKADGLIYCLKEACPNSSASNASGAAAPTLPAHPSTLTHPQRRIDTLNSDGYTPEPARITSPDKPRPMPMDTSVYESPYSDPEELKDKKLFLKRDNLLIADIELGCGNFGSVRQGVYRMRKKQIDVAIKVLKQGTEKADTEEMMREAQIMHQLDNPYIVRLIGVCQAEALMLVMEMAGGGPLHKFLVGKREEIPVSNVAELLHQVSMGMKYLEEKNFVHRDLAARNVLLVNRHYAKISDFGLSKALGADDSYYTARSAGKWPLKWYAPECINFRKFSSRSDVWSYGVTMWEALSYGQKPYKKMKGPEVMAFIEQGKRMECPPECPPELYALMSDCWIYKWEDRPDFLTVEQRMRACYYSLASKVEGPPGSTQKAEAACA
# Outline: as §2
# ErbB2 = target: T5, ErbB2 (Homo sapiens, UniProt P04626); experiment: Kinase inhibition assay (33P transfer), ErbB2; settings: for IC50: read-out: ErbB2-2
# T5 construct: Kinases are expressed as either kinase domains or full length constructs; made in house
# Outline: as §1
# Itk = target: T6, Itk (Homo sapiens, UniProt Q08881); experiment: Kinase inhibition assay (33P transfer), Itk; settings: for IC50: read-out: Itk-1
# T6 construct: Kinases are expressed as either kinase domains or full length constructs; made in house
# T6 sequence (Q08881 1-620): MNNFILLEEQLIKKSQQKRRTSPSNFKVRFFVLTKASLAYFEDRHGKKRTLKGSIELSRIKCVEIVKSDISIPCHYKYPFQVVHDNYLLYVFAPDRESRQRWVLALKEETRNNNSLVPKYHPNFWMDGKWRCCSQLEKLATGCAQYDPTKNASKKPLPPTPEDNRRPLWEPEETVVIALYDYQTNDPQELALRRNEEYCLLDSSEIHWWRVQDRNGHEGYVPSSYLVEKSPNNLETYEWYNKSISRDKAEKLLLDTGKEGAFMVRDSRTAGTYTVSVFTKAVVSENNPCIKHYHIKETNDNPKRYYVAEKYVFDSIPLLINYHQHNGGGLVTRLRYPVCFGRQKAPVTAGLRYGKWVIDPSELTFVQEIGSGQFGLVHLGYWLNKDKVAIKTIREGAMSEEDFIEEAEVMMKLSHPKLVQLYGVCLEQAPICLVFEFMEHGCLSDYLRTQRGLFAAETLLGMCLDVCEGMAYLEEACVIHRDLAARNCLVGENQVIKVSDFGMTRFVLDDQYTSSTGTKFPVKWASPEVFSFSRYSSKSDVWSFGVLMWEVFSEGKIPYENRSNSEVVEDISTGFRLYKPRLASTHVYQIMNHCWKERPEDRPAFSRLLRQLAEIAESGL
# Outline: as §1
# IGFR-1 = target: T7, IGFR-1 (Homo sapiens, UniProt P08069); experiment: Kinase inhibition assay, IGFR-1 (Table 2); settings: Table 2, kinase inhibition class
# T7 construct: Kinases are expressed as either kinase domains or full length constructs; made in house
# Lck = target: T8, Lck (Homo sapiens, UniProt P06239); experiment: Kinase inhibition assay (33P transfer), Lck; settings: for IC50: read-out: Lck-1
# T8 construct: Kinases are expressed as either kinase domains or full length constructs; made in house
# Outline: as §2
# c-Met = target: T9, c-Met (Homo sapiens, UniProt P08581); experiment: Kinase inhibition assay (33P transfer), c-Met; settings: Table 2, kinase inhibition class; for IC50: read-out: Met-1
# T9 construct: Kinases are expressed as either kinase domains or full length constructs; made in house
# Outline: as §1
# AKT = target: T10, AKT (Homo sapiens, UniProt Q9Y243); experiment: Kinase inhibition assay (33P transfer), AKT; settings: Table 2, kinase inhibition class; for IC50: read-out: AKT3-1
# T10 construct: Kinases are expressed as either kinase domains or full length constructs; made in house
# Outline: as §2
# T2 sequence (P35968 20-1356, species assumed): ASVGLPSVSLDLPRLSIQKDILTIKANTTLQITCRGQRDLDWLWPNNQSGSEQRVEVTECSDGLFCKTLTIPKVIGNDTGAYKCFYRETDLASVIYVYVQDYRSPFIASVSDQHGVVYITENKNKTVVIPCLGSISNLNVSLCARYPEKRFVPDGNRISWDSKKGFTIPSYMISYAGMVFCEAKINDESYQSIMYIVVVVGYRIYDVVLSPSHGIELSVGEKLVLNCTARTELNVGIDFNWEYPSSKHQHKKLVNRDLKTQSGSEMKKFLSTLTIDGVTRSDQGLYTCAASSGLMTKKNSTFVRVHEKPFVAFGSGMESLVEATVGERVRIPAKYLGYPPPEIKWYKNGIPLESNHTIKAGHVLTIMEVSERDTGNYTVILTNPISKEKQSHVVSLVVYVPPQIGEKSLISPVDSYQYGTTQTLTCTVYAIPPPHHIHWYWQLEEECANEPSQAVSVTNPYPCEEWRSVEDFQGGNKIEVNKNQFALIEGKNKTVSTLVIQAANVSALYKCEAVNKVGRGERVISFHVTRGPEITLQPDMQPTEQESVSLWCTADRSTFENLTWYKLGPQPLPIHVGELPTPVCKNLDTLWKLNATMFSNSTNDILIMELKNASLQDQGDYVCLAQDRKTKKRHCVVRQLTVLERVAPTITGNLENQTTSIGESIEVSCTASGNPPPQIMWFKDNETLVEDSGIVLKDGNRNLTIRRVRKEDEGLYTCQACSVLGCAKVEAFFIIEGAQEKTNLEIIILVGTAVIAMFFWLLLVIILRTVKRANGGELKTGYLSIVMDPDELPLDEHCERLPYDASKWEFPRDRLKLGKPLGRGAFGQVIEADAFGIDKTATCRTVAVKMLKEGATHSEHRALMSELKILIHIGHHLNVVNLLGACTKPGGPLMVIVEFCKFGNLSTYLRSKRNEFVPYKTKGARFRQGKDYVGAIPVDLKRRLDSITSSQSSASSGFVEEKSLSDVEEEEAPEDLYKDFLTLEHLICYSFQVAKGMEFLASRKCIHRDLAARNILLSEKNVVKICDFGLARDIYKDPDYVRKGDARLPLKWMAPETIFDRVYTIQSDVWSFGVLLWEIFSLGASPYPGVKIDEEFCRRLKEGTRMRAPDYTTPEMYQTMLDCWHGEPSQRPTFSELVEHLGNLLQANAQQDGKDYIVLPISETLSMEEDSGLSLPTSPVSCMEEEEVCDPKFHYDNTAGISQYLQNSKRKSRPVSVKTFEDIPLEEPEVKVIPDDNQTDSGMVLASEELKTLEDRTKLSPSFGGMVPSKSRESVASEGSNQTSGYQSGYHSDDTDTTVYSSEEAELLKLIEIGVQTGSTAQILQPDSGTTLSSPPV
# T3 sequence (P09619 33-1106, species assumed): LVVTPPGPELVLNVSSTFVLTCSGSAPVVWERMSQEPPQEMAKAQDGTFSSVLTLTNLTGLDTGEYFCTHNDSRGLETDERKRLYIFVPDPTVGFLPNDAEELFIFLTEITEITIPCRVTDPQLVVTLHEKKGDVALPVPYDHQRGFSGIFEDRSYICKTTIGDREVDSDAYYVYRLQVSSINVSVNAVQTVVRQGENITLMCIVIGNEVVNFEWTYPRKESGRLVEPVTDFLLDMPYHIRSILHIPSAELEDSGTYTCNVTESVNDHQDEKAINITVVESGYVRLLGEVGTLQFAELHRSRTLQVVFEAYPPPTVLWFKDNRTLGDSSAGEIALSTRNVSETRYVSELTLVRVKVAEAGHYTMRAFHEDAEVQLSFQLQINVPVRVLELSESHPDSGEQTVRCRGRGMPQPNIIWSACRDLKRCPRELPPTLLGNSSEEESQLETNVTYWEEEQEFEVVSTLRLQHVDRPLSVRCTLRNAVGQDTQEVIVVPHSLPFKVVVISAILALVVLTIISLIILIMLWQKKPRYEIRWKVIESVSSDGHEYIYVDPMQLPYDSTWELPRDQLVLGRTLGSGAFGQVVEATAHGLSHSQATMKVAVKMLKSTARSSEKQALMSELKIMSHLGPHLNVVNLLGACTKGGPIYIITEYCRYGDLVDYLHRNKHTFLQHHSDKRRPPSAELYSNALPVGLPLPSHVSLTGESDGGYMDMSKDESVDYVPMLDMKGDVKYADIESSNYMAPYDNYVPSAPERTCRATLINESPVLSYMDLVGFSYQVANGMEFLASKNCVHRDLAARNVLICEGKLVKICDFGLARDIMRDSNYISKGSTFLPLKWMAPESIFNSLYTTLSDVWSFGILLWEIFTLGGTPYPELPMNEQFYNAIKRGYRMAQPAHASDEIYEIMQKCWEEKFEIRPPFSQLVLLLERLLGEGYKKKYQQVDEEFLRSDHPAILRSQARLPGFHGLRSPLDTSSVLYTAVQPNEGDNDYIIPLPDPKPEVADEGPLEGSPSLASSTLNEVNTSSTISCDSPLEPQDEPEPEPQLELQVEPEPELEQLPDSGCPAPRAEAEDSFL
# T5 sequence (P04626 23-1255, species assumed): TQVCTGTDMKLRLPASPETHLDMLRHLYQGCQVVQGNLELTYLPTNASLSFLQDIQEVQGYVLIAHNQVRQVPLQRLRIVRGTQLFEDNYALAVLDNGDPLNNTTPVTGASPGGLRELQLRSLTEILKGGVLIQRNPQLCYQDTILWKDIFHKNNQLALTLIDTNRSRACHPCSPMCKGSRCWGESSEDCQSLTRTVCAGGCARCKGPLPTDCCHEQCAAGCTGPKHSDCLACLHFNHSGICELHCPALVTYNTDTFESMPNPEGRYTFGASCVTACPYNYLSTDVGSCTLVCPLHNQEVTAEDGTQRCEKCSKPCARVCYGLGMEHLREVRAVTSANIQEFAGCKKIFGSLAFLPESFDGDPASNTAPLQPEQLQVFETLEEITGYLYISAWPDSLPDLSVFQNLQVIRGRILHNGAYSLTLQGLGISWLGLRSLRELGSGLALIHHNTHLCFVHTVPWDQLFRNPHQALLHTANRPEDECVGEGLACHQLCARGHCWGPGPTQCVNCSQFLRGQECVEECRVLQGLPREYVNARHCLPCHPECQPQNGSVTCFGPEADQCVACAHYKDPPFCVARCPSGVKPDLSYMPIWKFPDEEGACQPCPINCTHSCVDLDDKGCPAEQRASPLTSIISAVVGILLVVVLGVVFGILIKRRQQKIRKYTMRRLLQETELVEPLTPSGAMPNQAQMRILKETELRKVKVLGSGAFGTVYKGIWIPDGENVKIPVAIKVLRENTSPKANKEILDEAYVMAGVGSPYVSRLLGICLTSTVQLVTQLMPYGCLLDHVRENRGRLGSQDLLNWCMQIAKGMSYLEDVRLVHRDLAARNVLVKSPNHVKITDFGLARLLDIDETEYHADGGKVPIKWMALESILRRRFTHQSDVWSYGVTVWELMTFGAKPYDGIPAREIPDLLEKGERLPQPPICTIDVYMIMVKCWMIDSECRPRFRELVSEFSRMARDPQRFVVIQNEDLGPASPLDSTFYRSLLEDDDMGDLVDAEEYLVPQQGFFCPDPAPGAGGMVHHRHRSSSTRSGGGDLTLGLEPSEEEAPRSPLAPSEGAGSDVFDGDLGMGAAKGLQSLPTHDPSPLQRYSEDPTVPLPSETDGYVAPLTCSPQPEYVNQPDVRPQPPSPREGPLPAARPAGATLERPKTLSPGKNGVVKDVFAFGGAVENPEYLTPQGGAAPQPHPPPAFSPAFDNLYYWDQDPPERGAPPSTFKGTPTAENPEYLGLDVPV
# T9 sequence (P08581 25-1390): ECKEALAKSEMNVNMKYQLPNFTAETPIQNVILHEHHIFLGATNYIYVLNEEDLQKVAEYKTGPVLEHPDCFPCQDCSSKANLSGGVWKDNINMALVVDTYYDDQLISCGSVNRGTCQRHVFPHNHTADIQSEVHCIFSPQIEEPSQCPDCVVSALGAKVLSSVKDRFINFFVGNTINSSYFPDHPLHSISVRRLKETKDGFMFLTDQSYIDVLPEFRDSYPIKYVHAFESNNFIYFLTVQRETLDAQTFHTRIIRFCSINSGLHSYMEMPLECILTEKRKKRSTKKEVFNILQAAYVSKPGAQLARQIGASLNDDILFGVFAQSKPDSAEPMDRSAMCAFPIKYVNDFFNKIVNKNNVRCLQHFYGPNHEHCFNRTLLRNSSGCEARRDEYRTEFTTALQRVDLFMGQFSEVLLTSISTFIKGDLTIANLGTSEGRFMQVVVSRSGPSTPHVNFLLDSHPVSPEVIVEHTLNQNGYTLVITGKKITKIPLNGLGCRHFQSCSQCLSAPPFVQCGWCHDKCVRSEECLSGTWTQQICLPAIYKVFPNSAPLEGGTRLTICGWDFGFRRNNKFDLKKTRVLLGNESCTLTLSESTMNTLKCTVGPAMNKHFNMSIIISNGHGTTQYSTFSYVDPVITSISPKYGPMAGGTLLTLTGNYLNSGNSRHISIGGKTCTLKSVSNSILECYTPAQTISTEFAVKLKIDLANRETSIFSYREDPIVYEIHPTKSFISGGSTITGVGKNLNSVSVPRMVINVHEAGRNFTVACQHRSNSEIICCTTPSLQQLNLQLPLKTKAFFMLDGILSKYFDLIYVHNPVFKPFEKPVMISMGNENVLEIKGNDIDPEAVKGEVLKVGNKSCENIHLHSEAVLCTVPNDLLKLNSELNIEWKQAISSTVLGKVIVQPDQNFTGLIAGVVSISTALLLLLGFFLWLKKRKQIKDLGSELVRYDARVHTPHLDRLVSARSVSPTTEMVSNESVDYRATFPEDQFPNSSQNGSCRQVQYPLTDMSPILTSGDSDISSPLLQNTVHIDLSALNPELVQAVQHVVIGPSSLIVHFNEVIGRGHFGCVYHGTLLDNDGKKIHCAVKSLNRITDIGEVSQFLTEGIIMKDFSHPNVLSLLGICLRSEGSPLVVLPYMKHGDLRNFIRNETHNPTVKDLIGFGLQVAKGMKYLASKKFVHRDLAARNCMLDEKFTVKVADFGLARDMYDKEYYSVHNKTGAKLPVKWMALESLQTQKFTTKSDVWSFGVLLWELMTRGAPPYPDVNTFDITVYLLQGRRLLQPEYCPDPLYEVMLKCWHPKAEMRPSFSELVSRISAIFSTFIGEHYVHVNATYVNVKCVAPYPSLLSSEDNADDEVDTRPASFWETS
IC50 (EGFR) [µM],IC50 (Kdr) [µM],IC50 (PDGFRB) [µM],IC50 (Zap-70) [µM],IC50 (ErbB2) [µM],IC50 (Itk) [µM],IC50 (IGFR-1) [µM],IC50 (Lck) [µM],IC50 (c-Met) [µM],IC50 (AKT) [µM],SMILES,EGFR-1 (EGFR),KDR-1 (Kdr),PDGFRB-1 (PDGFRB),Zap-1 (Zap-70),ErbB2-2 (ErbB2),Itk-1 (Itk),IGFR-1 (IGFR-1),Lck-1 (Lck),Met-1 (c-Met),AKT3-1 (AKT)
4.71 to 6.87,0.785 to 4.71,6.87 to 8.83,> 8.83,0.785 to 4.71,> 8.83,> 8.83,4.71 to 6.87,> 8.83,> 8.83,COc1cc(Nc2ncnc(-n3c(NC4CCc5ccccc54)nc4ccccc43)n2)cc(OC)c1OC (stereo not shown) [Compound 1044],–,–,–,–,–,–,–,–,–,–
< 0.927,0.927 to 5.56,5.56 to 8.11,> 10.4,< 0.927,> 10.4,> 10.4,0.927 to 5.56,0.927 to 5.56,> 10.4,COc1ccc(Nc2ncnc(N3CCCc4ccc(C(F)(F)F)cc43)n2)cc1OC [Compound 535],–,–,–,–,–,–,–,–,–,–
7.49 to 9.62,> 9.62,> 9.62,7.49 to 9.62,> 9.62,> 9.62,7.49 to 9.62,> 9.62,> 9.62,> 9.62,COc1ccc(CNc2ncnc(Nc3ccc4c(cnn4Cc4ccccc4)c3)n2)cc1OC [Compound 732],–,–,–,–,–,–,–,–,–,–
> 13.5,> 13.5,> 13.5,> 13.5,> 13.5,> 13.5,> 13.5,> 13.5,> 13.5,> 13.5,COc1ccc(Nc2ncnc(NCCNC(C)=O)n2)cc1OC [Compound 784],–,–,–,–,–,–,–,–,–,–
> 8.8,< 0.782,< 0.782,> 8.8,> 8.8,> 8.8,> 8.8,< 0.782,> 8.8,> 8.8,COc1cc(Nc2ncnc(-n3c(NC(C)(C)c4ccccc4)nc4ccccc43)n2)cc(OC)c1OC [Compound 569],–,–,–,–,–,–,–,–,–,–
< 1.14,< 1.14,1.14 to 6.83,> 12.8,1.14 to 6.83,> 12.8,> 12.8,6.83 to 9.96,> 12.8,> 12.8,Cc1ccc(Nc2ncnc(Nc3cccc(CC(=O)O)c3)n2)cc1O [Compound 543],–,–,–,–,–,–,–,–,–,–
< 0.886,< 0.886,< 0.886,> 9.97,< 0.886,> 9.97,> 9.97,0.886 to 5.32,7.75 to 9.97,> 9.97,O=C(O)Cc1cccc(Nc2ncnc(-n3c(NCc4ccccc4)nc4ccccc43)n2)c1 [Compound 531],–,–,–,–,–,–,–,–,–,–
4.91 to 7.17,0.819 to 4.91,> 9.21,> 9.21,4.91 to 7.17,4.91 to 7.17,< 0.819,0.819 to 4.91,7.17 to 9.21,> 9.21,COc1cc(Nc2ncnc(Nc3cc(-c4ccc(Cl)c(Cl)c4)n[nH]3)n2)cc(OC)c1OC [Compound 589],–,–,–,–,–,–,–,–,–,–
> 7.94,> 7.94,> 7.94,> 7.94,4.24 to 6.18,4.24 to 6.18,< 0.706,0.706 to 4.24,< 0.706,> 7.94,COc1cc(Nc2ncnc(Nc3cc(-c4ccc(C(=O)NCCc5ccccc5)cc4)n[nH]3)n2)cc(OC)c1OC [Compound 1006],–,–,–,–,–,–,–,–,–,–
< 1.16,1.16 to 6.98,> 13.1,> 13.1,1.16 to 6.98,1.16 to 6.98,< 1.16,1.16 to 6.98,1.16 to 6.98,> 13.1,CC(C)(C)c1cc(Nc2ncnc(Nc3cccc(Cl)c3)n2)[nH]n1 [Compound 1007],–,–,–,–,–,–,–,–,–,–
< 0.804,< 0.804,7.03 to 9.04,> 9.04,0.804 to 4.82,> 9.04,> 9.04,0.804 to 4.82,> 9.04,> 9.04,CCc1ccc(Nc2nc3ccccc3n2-c2ncnc(Nc3cc(OC)c(OC)c(OC)c3)n2)cc1 [Compound 1048],–,–,–,–,–,–,–,–,–,–
> 13.5,> 13.5,> 13.5,> 13.5,> 13.5,10.5 to 13.5,> 13.5,> 13.5,> 13.5,> 13.5,Cc1ccc2c(c1)CCCN2c1ncnc(NCc2cccnc2)n1 [Compound 777],–,–,–,–,–,–,–,–,–,–
> 8.95,> 8.95,> 8.95,> 8.95,> 8.95,> 8.95,0.796 to 4.78,6.96 to 8.95,4.78 to 6.96,> 8.95,C=CCNC(=O)c1ccc(-c2cc(Nc3ncnc(Nc4cc(OC)c(OC)c(OC)c4)n3)[nH]n2)cc1 [Compound 1005],–,–,–,–,–,–,–,–,–,–
0.796 to 4.78,0.796 to 4.78,< 0.796,> 8.95,0.796 to 4.78,0.796 to 4.78,0.796 to 4.78,< 0.796,6.96 to 8.95,> 8.95,COc1cc(Nc2ncnc(Nc3ccc(OCC(=O)Nc4ccccc4)cc3)n2)cc(OC)c1OC [Compound 623],–,–,–,–,–,–,–,–,–,–
0.982 to 5.89,0.982 to 5.89,< 0.982,> 11,< 0.982,8.59 to 11,< 0.982,< 0.982,> 11,> 11,COc1cc(Nc2ncnc(Nc3ccc4c(cnn4C)c3)n2)cc(OC)c1OC [Compound 557],–,–,–,–,–,–,–,–,–,–
0.961 to 5.76,< 0.961,> 10.8,> 10.8,> 10.8,0.961 to 5.76,< 0.961,< 0.961,< 0.961,> 10.8,COc1ccc(-c2cc(Nc3ncnc(Nc4ccc(CC(N)=O)cc4)n3)[nH]n2)cc1 [Compound 576],–,–,–,–,–,–,–,–,–,–
–,–,–,–,–,–,–,–,–,–,Fc1ccc(Nc2ncnc(Nc3ccc4[nH]ccc4c3)n2)cc1Cl [Compound 715],A (A<0.4 ug/mL),B (B>0.4 and <2.4 ug/mL),B (B>0.4 and <2.4 ug/mL),C (C>2.4 and <3.5 ug/mL),B (B>0.4 and <2.4 ug/mL),D (D>3.5 and <4.5 ug/mL),B (B>0.4 and <2.4 ug/mL),E (E>4.5 ug/mL),C (C>2.4 and <3.5 ug/mL),D (D>3.5 and <4.5 ug/mL)
< 1.15,1.15 to 6.91,< 1.15,> 13,< 1.15,> 13,10.1 to 13,< 1.15,< 1.15,> 13,Cc1ccc2c(c1)CCCN2c1ncnc(Nc2cccc(CO)c2)n1 [Compound 770],–,–,–,–,–,–,–,–,–,–
> 8.78,< 0.78,0.78 to 4.68,> 8.78,0.78 to 4.68,4.68 to 6.83,4.68 to 6.83,< 0.78,> 8.78,> 8.78,COc1cc(Nc2ncnc(-n3c(Nc4ccc(N(C)C)cc4)nc4ccccc43)n2)cc(OC)c1OC [Compound 1051],–,–,–,–,–,–,–,–,–,–
